According to paper PMC6471485, “Selective Inhibitors of a Human Prolyl Hydroxylase (OGFOD1) Involved in Ribosomal Decoding” (Chemistry (Weinheim an Der Bergstrasse, Germany), 2019):

Molecular target: T1, MINA53 (Homo sapiens, UniProt Q8IUF8)
T1 construct: 1-464 and NO66116-641 were cloned into pFB-LIC-Bse; His (N); made in house; host or cells: Sf9 insect cells
Assay: MINA53 IC50 determination, RapidFire MS
Type: biochemical
Protocol: reactions were quenched after 4 min. KDM4A inhibition was tested as described previously using a formaldehyde dehydrogenase (FDH) assay.[9] JARID1B and JARID1C inhibition was tested as described previously using reported AlphaScreen-based assays.[10] MINA531-464 and NO66116-641 were cloned into pFB-LIC-Bse, and the N-terminal His-tagged proteins were produced in Sf9 insect cells. The MINA53 peptide substrate Rpl27a […]
(Gly31 – Pro49 […]) and the NO66 peptide substrate Rpl8
(Asn205 – Thr224 […]) were synthesized by Peptide Protein
Research Ltd (Fareham, Hampshire, UK) to >95% purity. IC50 determinations were performed in 384-well polypropylene plates (Greiner Bio One, Cat Number 781096), and compound dispenses were performed using an ECHO 550 acoustic dispenser (Labcyte, Sunnyvale, CA). […]
RapidFire integrator software (Agilent). Percent conversion was calculated in Excel, and IC50 curves were generated using Prism v. […]
Assays consisted of enzyme (2 µM), inhibitor (200 µM), MnCl2 (50 µM), and SYPRO Orange (1:5000 dilution), all prepared in 50 mM HEPES, pH 7.5. […] An Opticon thermal cycler (MJ Research Inc) was used to control temperature and measure fluorescence. […]
CPMG Binding Experiments: Binding of the inhibitors to the proteins was monitored using Carr-Purcell-Meiboom-Gill (CPMG)-edited 1H spectra. […]

T1 sequence (Q8IUF8 1-464 limits assumed): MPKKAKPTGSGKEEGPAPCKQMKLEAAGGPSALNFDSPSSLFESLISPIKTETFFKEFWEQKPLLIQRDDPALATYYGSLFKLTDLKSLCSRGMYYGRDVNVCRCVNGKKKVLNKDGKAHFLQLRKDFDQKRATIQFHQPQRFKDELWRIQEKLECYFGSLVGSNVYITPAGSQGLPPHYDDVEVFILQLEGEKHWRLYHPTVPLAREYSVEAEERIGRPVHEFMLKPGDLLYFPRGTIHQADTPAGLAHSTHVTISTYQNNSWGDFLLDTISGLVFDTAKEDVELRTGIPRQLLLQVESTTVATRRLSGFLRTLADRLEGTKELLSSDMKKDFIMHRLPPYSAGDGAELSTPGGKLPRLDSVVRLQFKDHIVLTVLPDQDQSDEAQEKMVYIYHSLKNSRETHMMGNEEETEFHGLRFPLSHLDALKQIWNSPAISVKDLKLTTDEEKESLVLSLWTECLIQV

In the case of Cn1c(O)c(C(=O)CCc2ccccc2)c(=O)n(C)c1=O [compound 26], the IC50 is reported as greater than 100 µM.
For Cn1c(O)c(C(=O)CCc2cccs2)c(=O)n(C)c1=O [compound 42], the IC50 was greater than 100 µM.
